Test results from patent publication US4089862A, “Pyridyl substituted ergoline derivatives” (Societa' Farmaceutici Italia S.p.A., priority 1976, dated 1978).

Tested on: rabbit platelets
Test: ADP induced platelet aggregation in vitro, turbidimetric method (Born and Cross, modified)
Type: cell-based
Conditions: percent of ADP controls, rabbit PRP
Description: For the relevant study on the platelet aggregation "in vitro" herein, the turbidimetric method initially described by Born and Cross (J. Physiol. 168, 178, 1963) has been followed with some changes, principally due to the use of rabbit platelets, rather than human or pig platelets, as reported in their original work: (1) Preparation of platelet-rich plasma (PRP) and platelet-poor plasma (PPP) Male rabbits weighing 2.5-3.5 kg were used. Fifty four ml of blood were withdrawn from the carotid artery of rabbits anaesthetized with ether. The blood was gently mixed with six ml of 3.8% trisodium citrate as anticoagulant. The PRP was obtained by centrifugation at 400 g for 10 minutes. The concentration of the platelets was adjusted to 250,000/mm^3 by diluting the PRP with PPP prepared by a second centrifugation of the blood samples for about 10 minutes at 2000 g. The aggregation experiments were in general performed within 1-2 hr. from the time of blood collection. (2) ADP induced platelet aggregation In the cuvette of the aggregometer, reagents were added as follows: 0.8 ml PRP, 0.2 ml drug solution or saline, and 0.2 ml ADP (adenosine diphosphate) at the molar concentration of 2.2 × 10^-4. The turbidimetry was checked after 11/2, 3 and 6 minutes. The inhibition of the aggregation is given in the table as percent of ADP controls at these three times.

[1] = 1 minute and 30 seconds after ADP, 50 γ
[2] = 1 minute and 30 seconds after ADP, 100 γ
[3] = 1 minute and 30 seconds after ADP, 200 γ

Row | Structure (SMILES) | percent inhibition of platelet aggregation [1] | percent inhibition of platelet aggregation [2] | percent inhibition of platelet aggregation [3] | percent inhibition of platelet aggregation (3 minutes after ADP, 50 γ) | percent inhibition of platelet aggregation (3 minutes after ADP, 100 γ) | percent inhibition of platelet aggregation (3 minutes after ADP, 200 γ) | percent inhibition of platelet aggregation (6 minutes after ADP, 50 γ) | percent inhibition of platelet aggregation (6 minutes after ADP, 100 γ) | percent inhibition of platelet aggregation (6 minutes after ADP, 200 γ)
1 | CO[C@]12C[C@@H](COC(=O)c3cncc(Br)c3)CN(C)[C@@H]1Cc1cn(C)c3cccc2c13 [355/347, 10-methoxy-1,6-dimethyl-8β-methanol-5-bromonicotinate, reference compound] | 11% | 24% | 40% | 12% | 21% | 50% | 22% | 33% | 60%
2 | CO[C@]12C[C@@H](CNc3ccc(Br)cn3)CN(C)[C@@H]1Cc1cn(C)c3cccc2c13 [compound 893, N-(5'-bromo-2'-pyridyl)-10α-methoxy-1,6-dimethylergoline-8β-methanamine] | 31% | 58% | 63% | 14% | 46% | 69% | 7% | 52% | 71%
3 | CO[C@]12C[C@@H](CNc3cc(C)ccn3)CN(C)[C@@H]1Cc1cn(C)c3cccc2c13 [compound 894, N-(4'-methyl-2'-pyridyl)-10α-methoxy-1,6-dimethylergoline-8β-methanamine] | 22% | 61% | 100% | 22% | 61% | 100% | 29% | 71% | 100%
4 | CO[C@]12C[C@@H](CNc3cc(C)cc(C)n3)CN(C)[C@@H]1Cc1cn(C)c3cccc2c13 [compound 897, N-(4',6'-dimethyl-2'-pyridyl)-10α-methoxy-1,6-dimethylergoline-8β-methanamine] | 31% | 62% | 89% | 22% | 51% | 91% | 25% | 56% | 92%
5 | CO[C@]12C[C@@H](CNc3ccccn3)CN(C)[C@@H]1Cc1cn(C)c3cccc2c13 [compound 925, N-(2'-pyridyl)-10α-methoxy-1,6-dimethylergoline-8β-methanamine] | 16% | 50% | 100% | 21% | 56% | 100% | 30% | 65% | 100%
6 | CO[C@]12C[C@@H](CSc3ccc([N+](=O)[O-])cn3)CN(C)[C@@H]1Cc1cn(C)c3cccc2c13 [compound 926, 5'-Nitro-2'-pyridyl-10α-methoxy-1,6-dimethylergoline-8β-methyl sulphide] | 25% | 61% | 100% | 13% | 55% | 100% | 17% | 65% | 100%
